The text below walks through data of paper PMC9694334, “Synthesis and Biological Evaluation of a Fused Structure of Indolizine and Pyrrolo[1,2-c]pyrimidine: Identification of Its Potent Anticancer Activity against Liver Cancer Cells” (Pharmaceuticals, 2022).

By IC50 is commonly meant the concentration needed to halve the response being measured.

One test concerns HaCaT cells. The test is described as follows: Cell viability assay (MTS) in HaCaT cells. The format is cell-based, human. The following applies: Homo sapiens, mean, n = 5. The protocol:
(§1) HepG2, Huh7, H1299, HT29, AGS and A549 cells were purchased from the Korean Cell Line Bank (Seoul, Korea) and HaCaT cells were obtained from Prof. Sohee Kwon (Yonsei University, Korea). Liver cancer cells (HepG2), human keratinocyte cells (HaCaT), and lung cancer cells (A549) were grown in DMEM high-glucose medium, liver cancer cells (Huh7) and non-small cell lung cancer cells (H1299) were grown in RPMI 1640, and gastric cancer cells (AGS) were grown in Coon’s modified F12 medium. All media were supplemented with 10% FBS, 100 Units/mL penicillin, and 100 μg/mL streptomycin. All cells were incubated at 37 °C, 5% CO2 and 95% humidity.
(§2) Cell viability assay was conducted using Cell Titer 96® AQueous One Solution Cell proliferation Assay kit (Promega, Madison, WI, USA). Five cancer cells and HaCaT cells were plated in 96-well microplates with growth medium for 24 h. When cell confluency reached ~30%, cells were treated with DMSO (vehicle) and test compounds. The medium and test compounds were replaced every 24 h. To measure cell viability, the cells were incubated with MTS solution for 1 h. The absorbance was measured by using Infinite M200 microplate reader (Tecan, Männedorf, Switzerland) at 490 nm.
(§3) Figure 2 Effect of 5r on cell viability in HepG2, Huh7, AGS, H1299, A549, HaCaT, NIH3T3, and HEK293T cells. (A–H) HepG2, Huh7, AGS, H1299, A549, HaCaT, NIH3T3, and HEK293T cells were cultured with 5r at the indicated concentrations for 72 h, and medium was replaced every 24 h with freshly added 5r. Cell viability was measured by MTS analysis (mean ± S.D., n = 5). * p < 0.05, ** p < 0.01, *** p < 0.001.

In a further test the test system is Huh7 cells. The test is described as follows: Cell viability assay (MTS) in Huh7 cells. The format is cell-based. The note with it: Homo sapiens, Huh-7, mean, n = 5, 72 h for 5r (Figure 2). The protocol:
as §1, §2, §3

A further test has as its system HepG2 cells. The test is described as follows: Cell viability assay (MTS) in HepG2 cells. The format is cell-based. The following applies: mean; for IC50: Homo sapiens, MTS, n = 5, 72 h for 5r (Figure 2). The protocol: as §1, §2, §3
Another test deals with HT29 cells. The test is described as follows: Cell viability assay (MTS) in HT29 cells. The following applies: mean, n = 3. It counts as cell-based. The protocol:
as §1, §2

For another test, the system named is H1299 cells. Description: Cell viability assay (MTS) in H1299 cells. The following applies: 10 μM, mean, n = 3. The format is cell-based. The protocol:
as §1, §2, §3

For another test, the system named is A549 cells. Description: Cell viability assay (MTS) in A549 cells. It counts as cell-based. The following applies: 10 μM, mean, n = 3. The protocol:
as §1, §2, §3

A further test deals with AGS cells. The test is described as follows: Cell viability assay (MTS) in AGS cells. The following applies: 10 μM, mean, n = 3. It counts as cell-based. The protocol: as §1, §2, §3
Another test has as its system hepatocellular carcinoma. Also on record: method as in PMID 10951336, PMID 11408798, PMID 11462924, PMID 12115351, PMID 14612894. The following applies: gemcitabine alone; phase 2 clinical trials; cited from earlier work.
The test system of test [1] is caspase-3. The test is described as follows: Caspase-3 activity assay in Huh7 cells. It counts as cell-based. The following applies: 20 μM Ac-DEVD-CHO, Figure 4D. The protocol:
(§4) HepG2 and Huh7 cells were plated in 96-black-well plate to about 40% confluence, and then 5r was treated for 24 h. To assess activity of caspase-3, the growth medium was changed with 100 μL of PBS containing 1 μM caspase-3 substrate, NucView 488, and incubated at room temperature. After 20 min, 1 μM Hoechst 33342 was treated to stain the cells. Activity of caspase-3 was suppressed by Ac-DEVD-CHO, a selective caspase-3 inhibitor. FLUOstar Omega microplate reader (BMG Labtech, Ortenberg, Germany) was used to assess the fluorescence of NucView 488 and Hoechst, and Lionheart FX Automated Microscope (BioTek, Winooski, VT, USA) was used to acquire the fluorescence microscopy images.
(§5) Figure 4 Effect of 5r on activity of caspase-3 and cleavage of PARP in HepG2 and Huh7 cells. (A,B) HepG2 and Huh7 cells were incubated with 3 µM 5r for 24 h and then incubated with 1 µM caspase-3 substrate (green) and 1 µM Hoechst 33,342 (blue) for 20 min before image acquisition. (C,D) Cells were cultured with 5r at the indicated concentrations for 24 h and then 1 μM caspase-3 substrate was treated for 20 min. Caspase-3 was inhibited by 20 μM Ac-DEVD-CHO (mean ± S.D., n = 3). (E,F) Cells were cultured with 5r at the indicated concentrations for 24 h, and expression level of PARP, cleaved-PARP and β-actin were measured by Western blot analysis. […]

Test [2] relates to caspase-3. Description: Caspase-3 activity assay in HepG2 cells. The format is cell-based. The note with it: 20 μM Ac-DEVD-CHO, Figure 4C. The protocol:
as §4, §5

On to `COc1cc(O)c(-c2nc3c(c(C#N)c4ccccn43)c3cccn23)cc1OC` [Compound 5aa, 5-(2-Hydroxy-4,5-dimethoxyphenyl)pyrrolo[1′,2′:1,6]pyrimido[5,4-b]indolizine-12-carbonitrile], for which the IC50 with HaCaT cells came out at 2.21 µM; in the test on Huh7 cells it was 0.87 µM; in the test with HepG2 cells it was 1.17 µM.
On the same counts, the results for `N#Cc1c2c3cccn3c(-c3cc(Cl)ccc3O)nc2n2ccccc12` [Compound 5ab, 5-(5-Chloro-2-hydroxyphenyl)pyrrolo[1′,2′:1,6]pyrimido[5,4-b]indolizine-12-carbonitrile] are 2.3 µM, 0.71 µM and 0.84 µM.
Regarding `N#Cc1c2c3cccn3c(-c3cccs3)nc2n2ccccc12` [Compound 5n, 5-(Thiophen-2-yl)pyrrolo[1′,2′:1,6]pyrimido[5,4-b]indolizine-12-carbonitrile], the “% Inhibition of Cell Viability at 10 μM HT29” value with HT29 cells is given as 48.4%. Further, the “% Inhibition of Cell Viability at 10 μM H1299” value in the test with H1299 cells was 70.3%. Moreover, the IC50 in the test with HaCaT cells came out at 13.3 µM; with Huh7 cells, 0.75 µM; with HepG2 cells it was 0.28 µM. Besides, the “% Inhibition of Cell Viability at 10 μM A549” value in the test on A549 cells came to 38.0%. Besides, the “% Inhibition of Cell Viability at 10 μM AGS” value in the test with AGS cells was under 25%. Further, the “% Inhibition of Cell Viability at 10 μM HepG2” value in the test with HepG2 cells (10 μM, n = 3) is 98.9%.
In the case of `N#Cc1c2c3cccn3c(-c3cccnc3)nc2n2ccccc12` [Compound 5o, 5-(Pyridin-3-yl)pyrrolo[1′,2′:1,6]pyrimido[5,4-b]indolizine-12-carbonitrile], the IC50 was 3.98 µM in the test with HaCaT cells, 1.47 µM with Huh7 cells and 2 µM in the test with HepG2 cells.
On the same counts, the results for `COc1ccccc1-c1nc2c(c(C#N)c3ccccn32)c2cccn12` [Compound 5p, 5-(2-Methoxyphenyl)pyrrolo[1′,2′:1,6]pyrimido[5,4-b]indolizine-12-carbonitrile] are 16.2 µM, 2.25 µM and 3.42 µM.
On the same counts, the results for `COc1cccc(-c2nc3c(c(C#N)c4ccccn43)c3cccn23)c1` [Compound 5q, 5-(3-Methoxyphenyl)pyrrolo[1′,2′:1,6]pyrimido[5,4-b]indolizine-12-carbonitrile] are 8.3 µM, 1.45 µM and 1.31 µM.
The like results for `N#Cc1c2c3cccn3c(-c3cccc(O)c3)nc2n2ccccc12` [Compound 5s, 5-(3-Hydroxyphenyl)pyrrolo[1′,2′:1,6]pyrimido[5,4-b]indolizine-12-carbonitrile] were, in that order, 8.49 µM, 4.02 µM and 2.94 µM.
With `N#Cc1c2c3cccn3c(-c3ccccc3F)nc2n2ccccc12` [Compound 5t, 5-(2-Fluorophenyl)pyrrolo[1′,2′:1,6]pyrimido[5,4-b]indolizine-12-carbonitrile], the IC50 in the test with HaCaT cells amounted to 6.78 µM; with Huh7 cells it was 1.92 µM; in the test on HepG2 cells, 1.58 µM.
In the case of `N#Cc1c2c3cccn3c(-c3ccccc3Cl)nc2n2ccccc12` [Compound 5u, 5-(2-Chlorophenyl)pyrrolo[1′,2′:1,6]pyrimido[5,4-b]indolizine-12-carbonitrile], the values for the IC50 in the test on HaCaT cells, in the test with Huh7 cells and with HepG2 cells were 11.5 µM, 3.95 µM and 2.1 µM, respectively.
On the same counts, the results for `N#Cc1c2c3cccn3c(-c3cccc(Cl)c3)nc2n2ccccc12` [Compound 5v, 5-(3-Chlorophenyl)pyrrolo[1′,2′:1,6]pyrimido[5,4-b]indolizine-12-carbonitrile] are 15.3 µM, 1.33 µM and 1.48 µM.
On the same counts, the results for `N#Cc1c2c3cccn3c(-c3ccccc3Br)nc2n2ccccc12` [Compound 5w, 5-(2-Bromophenyl)pyrrolo[1′,2′:1,6]pyrimido[5,4-b]indolizine-12-carbonitrile] are 9.53 µM, 2.72 µM and 1.75 µM.
Regarding `N#Cc1c2c3cccn3c(-c3ncc[nH]3)nc2n2ccccc12` [Compound 5x, 5-(1H-Imidazol-2-yl)pyrrolo[1′,2′:1,6]pyrimido[5,4-b]indolizine-12-carbonitrile], the IC50 stood at 24.1 µM in the test on HaCaT cells, 7.85 µM in the test with Huh7 cells and 3.52 µM with HepG2 cells.
`COc1ccc(O)c(-c2nc3c(c(C#N)c4ccccn43)c3cccn23)c1` [Compound 5y, 5-(2-Hydroxy-5-methoxyphenyl)pyrrolo[1′,2′:1,6]pyrimido[5,4-b]indolizine-12-carbonitrile]: the IC50 worked out at 2.25 µM with HaCaT cells, 0.64 µM with Huh7 cells and 0.79 µM in the test on HepG2 cells.
On to `COc1ccc(-c2nc3c(c(C#N)c4ccccn43)c3cccn23)c(O)c1` [Compound 5z, 5-(2-Hydroxy-4-methoxyphenyl)pyrrolo[1′,2′:1,6]pyrimido[5,4-b]indolizine-12-carbonitrile], for which the IC50 in the test with HaCaT cells was 1.95 µM; with Huh7 cells it was 0.71 µM; with HepG2 cells it was 0.64 µM.
On the same counts, the results for `N#Cc1c2c3[nH]c4ccccc4c3c(-c3cccs3)nc2n2ccccc12` [Compound 10d, 7-(Thiophen-2-yl)-12H-indolizino[2′,3′:5,6]pyrido[4,3-b]indole-13-carbonitrile] are 0.81 µM, 0.6 µM and 2.27 µM.
As to `Nc1ccn([C@@H]2O[C@H](CO)[C@@H](O)C2(F)F)c(=O)n1` [gemcitabine], the Response rate in the test with hepatocellular carcinoma is listed as 0–20%.
For Ac-DEVD-CHO [reference compound], in the test on caspase-3 [1], the “Inhibition of 5r-increased caspase-3 activity in Huh7 cells” value is recorded as “fully inhibited”. In the test on caspase-3 [2], the “Inhibition of 5r-increased caspase-3 activity in HepG2 cells” value is “fully inhibited”.
